Measurements: publication PMC9964117, “Inhibitors against Two PDZ Domains of MDA-9 Suppressed Migration of Breast Cancer Cells” (International Journal of Molecular Sciences, 2023)
Numbering of substitutions follows the chain as printed. Read-outs that look alike come from different tables or passages of the source.

Legend:
[1] = target: T1, MDA-9 PDZ2 domain (Homo sapiens, UniProt O00560); test: Competitive fluorescence polarization with FITC-peptide; details: 250 μM PDZ2, 500 nM FITC-peptide; read-out: Binding affinity to PDZ2 from competitive FP
T1 construct: PDZ1 (110–193aa), PDZ2 (194–274aa), and the C-terminal (275–298aa); made in house
T1 sequence (O00560 194-274): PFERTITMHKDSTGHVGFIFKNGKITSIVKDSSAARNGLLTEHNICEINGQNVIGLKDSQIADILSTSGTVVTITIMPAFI
Experimental: (§1) For competitive FP experiments with the FITC-peptide, the PDZ1 domain concentration was set at 80 μM and the PDZ2 domain concentration at 250 μM. After that, each aliquot of the 200 μL sample contained 500 nM of the FITC-peptide, 80 μM of the PDZ1 or 250 μM of the PDZ2 domain, as well as different concentrations of PI1A or PI2A. A concentration range of 0–200 μM was administered for PI1A while a concentration range of 0–600 μM was administered for PI2A. Samples were repeated 3 times for each experimental group. The dissociation constants for the interactions between ligands and proteins were derived from the complete competitive FP equation proposed by Gerhard Wagner et al. (Biochemistry 2004). […]

[2] = test system: MDA-MB-231 cells; test: CCK8 cell viability assay; assay type: cell-based; details: 48 h treatment
Experimental: The MDA-MB-231 cells were obtained by a gift. CCK8 assay was used to assess the effects of PI1A or PI2A on the viability of MDA-MB-231 cells. Cells were placed in 96-well plates and treated with different concentrations of DMSO, PI1A, or PI2A for 48 h. Then, 10 μL of CCK8 solution was added to the wells. The 96-well plates were incubated in a CO2 incubator at 37 °C for another 1 h. OD values were measured at 450 nm using a CLARIOstar (BMG LABTECH) plate reader.

[3] = target: T2, MDA-9 PDZ1 domain (Homo sapiens, UniProt O00560); test: NMR chemical shift perturbation titration (1H-15N HSQC); details: 25 °C, pH 7.0, read-out: Binding affinity (Kd) to MDA-9 PDZ1 domain from dose-dependent CSPs
T2 construct: the N-terminal (1–109aa), PDZ1 (110–193aa), PDZ2 (194–274aa); made in house
T2 sequence (O00560 110-193): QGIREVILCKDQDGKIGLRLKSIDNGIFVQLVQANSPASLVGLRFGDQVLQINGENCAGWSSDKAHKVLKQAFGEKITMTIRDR
Experimental: (§2) NMR fragment-based screening was performed at 25 °C using an Agilent 700 MHZ spectrometer equipped with a 96-well autosampler (Agilent Technologies, Santa Clara, CA, USA). ^1H-^15N HSQC spectra were acquired from the ^15N-labeled MDA-9 PDZ1 and PDZ2 domains (0.05 mM). A fragment library of 890 compounds (Chembridge, SanDiego, CA, USA) and an approved drug library of 540 compounds (TargetMol, Boston, MA, USA) were pooled into cocktails, respectively, and each cocktail contained 10 compounds at 0.2 mM [39, 40]. The ^1H-^15N HSQC spectra were measured on an Agilent 700 MHz spectrometer at ligand/protein molar ratios ranging from 0.0 to 4.0.
(§3) The ^15N-labelled PDZ1 and PDZ2 domains of MDA-9 were concentrated in the HEPES buffer (20 mM HEPES, 100 mM NaCl, 1 mM EDTA, 1 mM DTT, pH 7.0) to 0.05 mmol/L. The screening fragment compounds were then titrated to these ^15N-labeled MDA-9 PDZ1 or PDZ2 domain, respectively. Each HSQC profile was collected (at molar ratios of 0.0, 2.0, 4.0, 8.0, 16.0, and 32.0 at 25 °C) using an Agilent 700 MHz spectrometer. NMR spectra were analyzed using Sparky. The chemical shift changes (Δδ), relative to the free form of the PDZ1 or PDZ2 domain, were calculated as follows:(1) Δδ=(∆δH^1)^2+(0.2ΔδN^15)^2 where ∆δH^1 and ΔδN^15 denote the chemical shift changes of ^1H and ^15N, respectively. […]

[4] = test system: MDA-MB-231 cells; test: Wound-healing assay; assay type: cell-based; details: 100 μM each compound, 0 and 24 h, relative to DMSO
Experimental: MDA-MB-231 cells were spread in 6-well plate culture dishes, where sh-MDA-9 cells were used as a positive control. DMSO (control), PI1A 100 μM, PI2A 100 μM, and both PI1A and PI2A 100 μM were added to the MDA-MB-231 cells, respectively. On newly grown monolayer cells, […] of the tip was used to line the central area of cell growth. Next, excess cells were washed away with PBS buffer. The cells were then cultured for the experimentally-determined period of time (0 h or 24 h). Lastly, the cell culture plates were removed separately and the peripheral cells were observed under a microscope to determine whether they had migrated to the scratched area.

[5] = target: T3, MTSL-labeled C239S/D256C mutant of MDA-9 PDZ2 domain (Homo sapiens, UniProt O00560, C239S/D256C); test: NMR CSP titration against MTSL-labeled mutant; assay type: binding; details: dose-dependent CSP
T3 construct: PDZ1 (110–193aa), PDZ2 (194–274aa), and the C-terminal (275–298aa); made in house
T3 sequence (O00560 194-274 C239S/D256C): T1 sequence (O00560 194-274) with C46S, D63C
Experimental: (§4) The ^15N-labelled PDZ1 and PDZ2 domains of MDA-9 were concentrated in the HEPES buffer (20 mM HEPES, 100 mM NaCl, 1 mM EDTA, 1 mM DTT, pH 7.0) to 0.05 mmol/L. The screening fragment compounds were then titrated to these ^15N-labeled MDA-9 PDZ1 or PDZ2 domain, respectively. Each HSQC profile was collected (at molar ratios of 0.0, 2.0, 4.0, 8.0, 16.0, and 32.0 at 25 °C) using an Agilent 700 MHz spectrometer. NMR spectra were analyzed using Sparky. The chemical shift changes (Δδ), relative to the free form of the PDZ1 or PDZ2 domain, were calculated as follows:(1) Δδ=(∆δH^1)^2+(0.2ΔδN^15)^2 where ∆δH^1 and ΔδN^15 denote the chemical shift changes of ^1H and ^15N, respectively.
(§5) According to this equation, the binding constants can be best fitted with a binding mode of 1:1: Δδobs=Δδmax([P]t+[L]t+Kd)−([P]t+[L]t+Kd)^2−4[P]t[L]t/2[P]t where [P]t and [L]t represent the concentrations of the protein and ligand, respectively. Δδobs represents the observed chemical shift changes, relative to the free-state protein.
(§6) The ^15N-labeled PDZ1 C118/C166S mutant and the PDZ2 C239S/D256C mutant were expressed by the method described above. After the dilution of the protein solution to 0.5 mg/mL with a 1-fold excess of Tris(2-carboxyethyl) phosphine (TCEP), the solution was incubated for 2 h at room temperature. […] WATERGATE spectra with T2 delays of 0.04 and 0.8 s were recorded. […]

[6] = target: T1, MDA-9 PDZ2 domain; test: NMR chemical shift perturbation titration (1H-15N HSQC); assay type: binding
Experimental: as §2, §3

[7] = target: T4, V209I mutant of MDA-9 PDZ2 domain (Homo sapiens, UniProt O00560, V209I); test: NMR CSP titration against mutant; assay type: binding
T4 construct: PDZ1 (110–193aa), PDZ2 (194–274aa), and the C-terminal (275–298aa); made in house
T4 sequence (O00560 194-274 V209I): T1 sequence (O00560 194-274) with V16I
Experimental: as §4, §5

[8] = target: T5, A255V mutant of MDA-9 PDZ2 domain (Homo sapiens, UniProt O00560, A255V); test: NMR CSP titration against mutant; assay type: binding
T5 construct: PDZ1 (110–193aa), PDZ2 (194–274aa), and the C-terminal (275–298aa); made in house
T5 sequence (O00560 194-274 A255V): T1 sequence (O00560 194-274) with A62V
Experimental: as §4, §5

[9] = target: T6, V209A mutant of MDA-9 PDZ2 domain (Homo sapiens, UniProt O00560, V209A); test: NMR CSP titration against mutant; assay type: binding; details: relative to wild type
T6 construct: PDZ1 (110–193aa), PDZ2 (194–274aa), and the C-terminal (275–298aa); made in house
T6 sequence (O00560 194-274 V209A): T1 sequence (O00560 194-274) with V16A
Experimental: as §4, §5

[10] = target: T7, H208A mutant of MDA-9 PDZ2 domain (Homo sapiens, UniProt O00560, H208A); test: NMR CSP titration against mutant; assay type: binding
T7 construct: PDZ1 (110–193aa), PDZ2 (194–274aa), and the C-terminal (275–298aa); made in house
T7 sequence (O00560 194-274 H208A): T1 sequence (O00560 194-274) with H15A
Experimental: as §4, §5

[11] = target: T8, G210A mutant of MDA-9 PDZ2 domain (Homo sapiens, UniProt O00560, G210A); test: NMR CSP titration against mutant; assay type: binding; details: relative to wild type
T8 construct: PDZ1 (110–193aa), PDZ2 (194–274aa), and the C-terminal (275–298aa); made in house
T8 sequence (O00560 194-274 G210A): T1 sequence (O00560 194-274) with G17A
Experimental: as §4, §5

[12] = target: T2, MDA-9 PDZ1 domain; set-up: method as in PMID 28011764; details: read-out: Affinity for MDA-9 PDZ1 domain; cited from earlier work
[13] = test system: prostate cancer or neuroblastoma; set-up: method as in PMID 31406249, PMID 31345950; details: cited from earlier work
[14] = test system: glioma cells; set-up: method as in PMID 28011764; details: cited from earlier work
[15] = target: T1, MDA-9 PDZ2 domain; details: cited from earlier work
[16] = test system: brain-tumor-bearing mice; set-up: method as in PMID 28011764; details: cited from earlier work
[17] = target: T2, MDA-9 PDZ1 domain; test: Competitive fluorescence polarization with FITC-peptide; details: 80 μM PDZ1, 500 nM FITC-peptide; read-out: Binding affinity to PDZ1 from competitive FP
Experimental: as §1

[18] = target: T9, MTSL-labeled C118/C166S mutant of MDA-9 PDZ1 domain (Homo sapiens, UniProt O00560, C166S); test: NMR CSP titration against MTSL-labeled mutant; details: dose-dependent CSP, read-out: Binding affinity to MTSL-labeled C118/C166S mutant of PDZ1
T9 construct: the N-terminal (1–109aa), PDZ1 (110–193aa), PDZ2 (194–274aa); made in house
T9 sequence (O00560 110-193 C166S): T2 sequence (O00560 110-193) with C57S
Experimental: as §4, §5, §6

O=C(O)c1cc(-c2ccc(F)cc2)n[nH]1 [PI2A]
Kd [1]: 510 µM
Toxicity / viability of MDA-MB-231 cells (CCK8) [2]: not toxic
Kd [3]: > 1000 µM
Migration of MDA-MB-231 cells (wound closure) [4]: suppressed the migration
Effect of MTSL labeling of C239S/D256C PDZ2 mutant on inhibitor binding affinity (in words) [5]: did not disrupt
Kd ([6]; 25 °C, pH 7.0, read-out: Binding affinity (Kd) to MDA-9 PDZ2 domain by NMR titration): 500 µM
Kd [7]: > 5000 µM
Kd [8]: > 5000 µM
Binding affinity to V209A mutant of PDZ2 (in words) [9]: reduced binding affinities
Binding to H208A mutant of PDZ2 (in words) [10]: incapable of binding
Binding affinity to G210A mutant of PDZ2 (in words) [11]: reduced binding affinities

Cc1cc(NC(=O)c2nc3nc4c(c(=O)n3[nH]2)CCC4)c(C)cc1NC(=O)CCc1nnc(-c2ccccc2)o1 [PDZ1i]
Kd [12]: 21 µM
In vivo activity against prostate cancer or neuroblastoma [13]: exhibited in vivo activity
Invasion of glioma cells [14]: inhibited the invasion
Binding to MDA-9 PDZ2 domain (in words) [15]: did not bind significantly
Survival rate in brain-tumor-bearing mice [16]: improved survival rate

Cc1cc(Nc2ccccc2C(=O)O)ccc1Cl [PI1A]
Kd [17]: 170 µM
Toxicity / viability of MDA-MB-231 cells (CCK8) [2]: not toxic
Kd [18]: 250 µM
Kd [3]: 110 µM
Migration of MDA-MB-231 cells (wound closure) [4]: suppressed the migration
Binding to MDA-9 PDZ2 domain (in words) [6]: did not bind
